Data reported in patent publication US11976083B2, “Inhibitors of peptidylarginine deiminases” (Gilead Sciences, Inc., priority 2020, dated 2024).

Molecular target: T1, human PAD4 (Homo sapiens, UniProt Q9UM07)
T1 construct: human PAD4 (NM_012387), A2-P663, was PCR amplified; His-SUMO (N, cleaved yes); made in house; host or cells: E. coli BL21(DE3)
Assay: In vitro PAD4 BAEE biochemical assay
Conditions: BAEE substrate 3 mM, 5 nM PAD4, 2 mM calcium chloride; geometric mean of multiple experiments
Summary of the method: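 Fluorescence read-out (ex 405/em 535 nm) of isoindole formed from ammonia, o-phthalaldehyde and DTT after EDTA stop. Reaction: 5 nM PAD4, 2 mM CaCl2, 3 mM BAEE, 2 h, 25 °C, after 30 min enzyme–compound preincubation. Normalised to BB-Cl-Amidine (50 µM) and DMSO controls.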

T1 sequence (Q9UM07 2-663): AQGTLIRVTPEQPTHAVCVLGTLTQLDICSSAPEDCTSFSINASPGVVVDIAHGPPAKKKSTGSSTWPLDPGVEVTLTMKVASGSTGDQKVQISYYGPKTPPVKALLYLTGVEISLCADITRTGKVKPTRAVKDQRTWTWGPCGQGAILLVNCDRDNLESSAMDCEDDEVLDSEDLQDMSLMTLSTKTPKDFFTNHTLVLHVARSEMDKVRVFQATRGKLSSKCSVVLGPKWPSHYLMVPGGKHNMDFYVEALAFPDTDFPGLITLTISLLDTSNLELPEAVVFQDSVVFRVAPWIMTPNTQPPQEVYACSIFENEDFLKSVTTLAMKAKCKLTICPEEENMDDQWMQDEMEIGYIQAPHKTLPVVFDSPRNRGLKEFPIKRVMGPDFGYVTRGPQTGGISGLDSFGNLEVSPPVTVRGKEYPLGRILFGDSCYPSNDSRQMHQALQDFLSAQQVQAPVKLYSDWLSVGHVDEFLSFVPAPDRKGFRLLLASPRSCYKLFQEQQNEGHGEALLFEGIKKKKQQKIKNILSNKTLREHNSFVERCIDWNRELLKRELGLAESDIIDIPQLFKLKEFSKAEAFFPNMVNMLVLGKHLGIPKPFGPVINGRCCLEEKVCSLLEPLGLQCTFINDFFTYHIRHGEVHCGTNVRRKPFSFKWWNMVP

| IC50 [nM] | SMILES |
| --- | --- |
| 13 | COc1cc(C(=O)N2C[C@H](N)[C@@H]3CC[C@H]2C3)cc2nc(-c3cc4ccc5nc4n3CC(F)(F)CCCc3ccccc3C(=O)N[C@@H]5C)n(C)c12 [Example 716, (2~{R})-17-[5-[(1~{S},4~ {R},5~{R})-4-amino-2-azabicyclo[3.2.1]octane-2-carbonyl]-7-methoxy-1-methyl-benzimidazol-2-yl]-14,14-difluoro-2-methyl-3,16,22-triazatetracyclo [14.5.2.0^{5,10}.0^{19,23}] tricosa-1(22),5(10),6,8,17, 19(23),20-heptaen-4-one] |
| 31 | C[C@H]1NC(=O)C(C)(C)CCCCCCn2c(-c3nc4cc(C(=O)N5C[C@H](N)[C@@H]6CC[C@H]5C6)cc(F)c4n3C3CC3)cc3ccc1cc32 [Example 462, (11~{R})-17-[5-[(1~{S},4~{R},5~{R})-4-amino-2-azabicyclo[3.2.1]octane-2-carbonyl]-1-cyclopropyl-7-fluoro-benzimidazol-2-yl]-8,8,11-trimethyl-1,10-diazatricyclo[10.5.2.0^{15,18}]nonadeca-12(19),13,15(18),16-tetraen-9-one] |
| 24 | C[C@H]1NC(=O)[C@@H]2C[C@H]2CCCC(F)(F)Cn2c(-c3nc4cc(C(=O)N5C[C@H](N)C[C@@H](F)C5)cc(F)c4n3C3CC3)cc3ccc1nc32 [Example 640, (2~{R},5~{R},7~{R})-14-[5-[(3~{R},5~{R})-3-amino-5-fluoro-piperidine-1-carbonyl]-1-cyclopropyl-7-fluoro-benzimidazol-2-yl]-11,11-difluoro-2-methyl-3,13,19-triazatetracyclo[11.5.2.0^ {5,7}.0^{16,20}]icosa-1(19),14,16(20),17-tetraen-4-one] |
| 3580 | C[C@H]1NC(=O)C(C)(C)CCCCCCn2c(-c3nc4cc(C(=O)N[C@H]5CNCC[C@@H]5F)c(C#N)cc4n3C)cc3ccc1nc32 [Example 596, 6-cyano-~{N}-[(3~{S},4~ {S})-4-fluoro-3-piperidyl]-1-methyl-2-[(11~{R})-8,8,11-trimethyl-9-oxo-1,10,19-triazatricyclo[10.5.2.0^ {15,18}]nonadeca-12,14,16,18-tetraen-17-yl] benzimidazole-5-carboxamide] |
| 31 | C[C@H]1NC(=O)c2cnc(Cl)cc2CCCCCn2c(-c3nc4cc(C(=O)N[C@H]5CNCC[C@@H]5F)c(F)cc4n3C3CC3)cc3ccc1nc32 [Example 357, 2-[(2~{R})-8-chloro-2-methyl-4-oxo-3,7,16,22-tetrazatetracyclo[14.5.2.0^{5,10}.0^{19,23}]tricosa-1(22),5,7,9,17,19(23),20-heptaen-17-yl]-1-cyclopropyl-6-fluoro-~ {N}-[(3~{S},4~{S})-4-fluoro-3-piperidyl]benzimidazole-5-carboxamide] |
| 22 | [2H]C1([2H])[C@H](N)[C@@H]2CC[C@@H](C2)N1C(=O)c1cc(F)c2c(c1)nc(-c1cc3ccc4nc3n1CCCCCc1nc(Cl)ccc1C(=O)N[C@@H]4C)n2C1CC1 [Example 764, (2~{R})-17-[5-[(1~{S},4~{R}, 5~{R})-4-amino-3,3-dideuterio-2-azabicyclo[3.2.1]octane-2-carbonyl]-1-cyclopropyl-7-fluoro-benzimidazol-2-yl]-8-chloro-2-methyl-3,9,16,22-tetrazatetracyclo[14.5.2.0^ {5,10).0^{19,23}]tricosa-1(22),5(10),6,8,17,19(23),20-heptaen-4-one] |
| 57 | COc1cc(C(=O)N2CC3(CCCNC3)C2)cc2nc(-c3cc4ccc5nc4n3CCCCC[C@@H]3CC3C(=O)N[C@@H]5C)n(C)c12 (stereo partly shown) [Example 508, (2~{R},7~{R})-14-[5-(2,8-diazaspiro [3.5]nonane-2-carbonyl)-7-methoxy-1-methyl-benzimidazol-2-yl]-2-methyl-3,13,19-triazatetracyclo[11.5.2.0^ {5,7}.0^{16,20}]icosa-1(19),14,16(20),17-tetraen-4-one] |
| 17 | Cc1nccc2c1C(=O)N[C@H](C)c1ccc3cc(-c4nc5cc(C(=O)N[C@H]6CNCC[C@@H]6F)c(F)cc5n4C4CC4)n(c3n1)CCCCC2 [Example 396, 1-cyclopropyl-2-[(2~{R})-2,6-dimethyl-4-oxo-3,7,16,22-tetrazatetracyclo[14.5.2.0^{5,10}.0^{19,23}]tricosa-1(22),5(10),6,8,17,19(23),20-heptaen-17-yl]-6-fluoro-~{N}-[(3~{S},4~{S})-4-fluoro-3-piperidyl]benzimidazole-5-carboxamide] |
| 29 | Cc1cncc2c1C(=O)N[C@H](C)c1ccc3cc(-c4nc5cc(C(=O)N[C@H]6CNCC[C@@H]6F)c(F)cc5n4C4CC4)n(c3n1)CCCCC2 [Example 395, 1-cyclopropyl-2-[(2~{R})-2,6-dimethyl-4-oxo-3,8,16,22-tetrazatetracyclo[14.5.2.0^{5,10}.0^{19,23}]tricosa-1(22),5(10),6,8,17,19(23),20-heptaen-17-yl]-6-fluoro-~{N}-[(3~{S},4~{S})-4-fluoro-3-piperidyl]benzimidazole-5-carboxamide] |
| 69 | COc1cc(C(=O)N2CCC[C@@H](N)C2)cc2nc(-c3cc4ccc5nc4n3CCCCCCC3(CCC3)C(=O)N[C@@H]5C)n(C)c12 [Example 263, (11~{R})-17-[5-[(3~{R})-3-aminopiperidine-1-carbonyl]-7-methoxy-1-methyl-benzimidazol-2-yl]-11-methyl-spiro[1,10,19-triazatricyclo[10.5.2.0^{15,18}]nonadeca-12(19),13,15(18),16-tetraene-8,1′-cyclobutane]-9-one] |
| 7 | COc1cc(C(=O)N2[C@H]3CC[C@@H]2[C@H](N)C3)cc2nc(-c3cc4ccc5nc4n3CCCCCCCC(=O)N[C@@H]5C)n(C)c12 [Example 285, (11~{R})-17-[5-[(1~{R},2~{R},4~{S})-2-amino-7-azabicyclo[2.2.1]heptane-7-carbonyl]-7-methoxy-1-methyl-benzimidazol-2-yl]-11-methyl-1,10,19-triazatricyclo[10.5.2.0^{15,18}]nonadeca-12(19),13,15(18),16-tetraen-9-one] |
| 22 | COc1cc(C(=O)N2C[C@H](N)[C@@H]3CC[C@H]2C3)cc2nc(-c3cc4ccc5nc4n3CCCCC[C@H]3[C@H](C(=O)N[C@@H]5C)C3(F)F)n(C3CC3)c12 [Example 930, (2~{R},5~{R},7~{S})-14-[5-[(1~{S},4~{R},5~{R})-4-amino-2-azabicyclo[3.2.1]octane-2-carbonyl]-1-cyclopropyl-7-methoxy-benzimidazol-2-yl]-6,6-difluoro-2-methyl-3,13,19-triazatetracyclo[11.5.2.0^ {5,7}.0^{16,20}]icosa-1(19), 14,16(20),17-tetraen-4-one] |
| 28 | C[C@@H]1c2ccc3cc(-c4nc5cc(C(=O)N[C@H]6CNCC[C@@H]6F)c(F)cc5n4C4CC4)n(c3n2)CCCCCc2nc(Cl)ccc2C(=O)N1C [Example 750, 2-[(2~{R})-8-chloro-2,3-dimethyl-4-oxo-3,9,16,22-tetrazatetracyclo[14.5.2.0^ {5,10}.0^{19,23}]tricosa-1(22),5(10),6,8,17,19(23),20-heptaen-17-yl]-1-cyclopropyl-6-fluoro-~{N}-[(3~{S},4~ {S})-4-fluoro-3-piperidyl] benzimidazole-5-carboxamide] |
| 85 | COc1cc(C(=O)N2CCC[C@@H](N)C2)cc2nc(-c3cc4ccc5nc4n3CCCCCOC(C)(C)C(=O)N[C@@H]5C)n(C)c12 [Example 18, (11~{R})-17-[5-[(3~{R})-3-aminopiperidine-1-carbonyl]-7-methoxy-1-methyl-benzimidazol-2-yl]-8,8,11-trimethyl-7-oxa-1,10,19-triazatricyclo[10.5.2.0^{15,18}]nonadeca-12(19),13,15(18),16-tetraen-9-one] |
| 90 | C[C@H]1NC(=O)C(C)(C)OCCCCCn2c(-c3nc4cc(C(=O)N[C@H]5CNCC[C@@H]5F)c(F)cc4n3C3CC3)cc3ccc1nc32 [Example 540, 1-cyclopropyl-6-fluoro-~{N}-[(3~{S},4~{S})-4-fluoro-3-piperidyl]-2-[(11~{R})-8,8,11-trimethyl-9-oxo-7-oxa-1,10,19-triazatricyclo[10.5.2.0^ {15,18}]nonadeca-12(19),13,15(18),16-tetraen-17-yl] benzimidazole-5-carboxamide] |
| 640 | COc1cc(C(=O)N2CC[C@@H](OC)[C@@H](N)C2)cc2nc(-c3cc4ccc5nc4n3CCCCCCC[C@@H](C(F)(F)F)N[C@@H]5C)n(C)c12 [Example 699, [(3~{S},4~{R})-3-amino-4-methoxy-1-piperidyl]-[7-methoxy-1-methyl-2-[(9~{S},11~ {R})-11-methyl-9-(trifluoromethyl)-1,10,19-triazatricyclo[10.5.2.0^ {15,18}]nonadeca-12(19),13,15(18),16-tetraen-17-yl]benzimidazol-5-yl] methanone] |
| 65 | COc1cc(C(=O)N[C@H]2CNC[C@H](O)C2)cc2nc(-c3cc4ccc5nc4n3CCCCCCC(C)(C)C(=O)N[C@@H]5C)n(C)c12 [Example 526, ~{N}-[(3~{R},5~{R})-5-hydroxy-3-piperidyl]-7-methoxy-1-methyl-2-[(11~{R})-8,8,11-trimethyl-9-oxo-1,10,19-triazatricyclo [10.5.2.0^{15,18}]nonadeca-12(19),13,15(18),16-tetraen-17-yl]benzimidazole-5-carboxamide] |
| 117 | CO[C@@H]1CCN(C(=O)c2cnc3c(c2)nc(-c2cc4ccc5nc4n2CCCCC[C@@H]2C[C@H]2C(=O)N[C@@H]5C)n3C2CC2)C[C@@H]1N [Example 574, (2~{R},5~{R},7~{R})-14-[6-[(3~{S},4~{R})-3-amino-4-methoxy-piperidine-1-carbonyl]-3-cyclopropyl-imidazo [4,5-b]pyridin-2-yl]-2-methyl-3,13,19-triazatetracyclo [11.5.2.0^{5,7}.0^{16,20}] icosa-1(19),14,16(20),17-tetraen-4-one] |
| 28 | COc1cc(C(=O)N2C[C@H](N)[C@@H]3CC[C@H]2C3)cc2nc(-c3cc4ccc5nc4n3CCC[C@H]3C[C@@H]3c3ccccc3C(=O)N[C@@H]5C)n(C)c12 [Example 893] |
